Results published in US20240336617A1, “Substituted Bimane Compounds and Methods of Use Thereof” (THE TRUSTEES OF THE UNIVERSITY OF PENNSYLVANIA, priority 2023, published 2024).

Columns and labels:
[1] = tested on: αS fibrils versus tau fibrils; assay: Amyloid selectivity by plate reader, αS versus tau fibrils; type: binding; design: fluorescence turn-on with αS relative to tau: dose or concentration left out as unconfirmed; settings: for fluorescence turn on with αS relative to tau: 5 μM fibril concentrations, probe 1 μM
Protocol: (§1) Experiments were performed on the Tecan Spark in Greiner 96 well flat black ½ area plates using the following parameters: excitation and emission band widths 5 nm, lag time 0 μs, integration time 40 μs. A 10 mM DMSO stock solution of probes (7j-7m) and 100 μM stock of αS fibrils were used in the study described herein.

[2] = tested on: αS fibrils versus Aβ1-42 fibrils; assay: Amyloid selectivity by plate reader, αS versus Aβ1-42 fibrils; type: binding; design: fluorescence turn-on with αS relative to Aβ1-42: dose or concentration left out as unconfirmed; settings: for fluorescence turn on with αS relative to Aβ1-42: 5 μM fibril concentrations, probe 1 μM
Protocol: as §1

[3] = Solvatochromic measurements; type: physicochemical; settings: organic solvents of different polarity
Protocol: The remaining 850 μL solution was used to obtain fluorescence images under a handheld 365 nm UV lamp.
Solvatochromic measurements. […] The remaining 850 μL solution was used to obtain fluorescence images under a handheld 365 nm UV lamp.

αS monomer = target: T1, αS monomer (Homo sapiens, UniProt P37840); assay: Fluorescence with αS monomer (with and without TMAO); type: binding; settings: for fluorescence turn on with αS monomer: varied probe or protein concentration; for λmax (λem): 10 μM probe, αS monomer 50 μM, excitation 418 nm
T1 construct: intein-His6 (C, cleaved yes); made in house; host or cells: Escherichia coli BL21
Protocol: A 1 mM stock solution of 5k in DMSO and a 6.5 M stock solution of trimethylamine N-oxide (TMAO) in Tris buffer at pH 7.4 were prepared. From these stocks, the fluorescence measurements of probe 5k (10 μM) were carried out with and without αS monomer (50 μM) at different concentrations of TMAO (2 M, 4 M and 6 M) diluted with the Tris buffer. The solutions were mixed and then the spectra were measured using a Photon Technology International (PTI) QuantaMaste 40 fluorescence spectrometer with excitation at 418 nm.

αS fibrils [4] = target: T2, αS fibrils (Homo sapiens, UniProt P37840); assay: Absorbance spectra with αS fibrils; type: physicochemical; settings: for λabs / λabs, maximum absorption wavelength: dye 10 μM; for ε / E, molar absorptivity (ε): measured at λabs; for λabs, maximum absorption wavelength / E, molar absorptivity (ε): presence of αS PFFs (+); for λabs, maximum absorption wavelength: PFFs 50 μM, mixture of bound and unbound dye; for increase in molar absorptivity with αS fibrils: presence versus absence of αS fibrils
T2 construct: intein-His6 (C, cleaved yes); made in house; host or cells: Escherichia coli BL21
Protocol: Absorption measurements were performed using Thermo Scientific Genesys 150 UV Vis spectrometer. Absorption spectra of 10 μM probes (concentrated stock solution prepared as 10 mM in DMSO) (7j, 7k, 7l, and 7m) in PBS buffer were measured in the absence and presence of 50 μM αS fibrils (stock solution 100 μM αS fibrils in PBS buffer).
Absorption measurements were performed using Thermo Scientific Genesys 150 UV Vis spectrometer. Absorption spectra of 10 μM probes (concentrated stock solution prepared as 10 mM in DMSO) (5j and 5k) in PBS buffer were measured in the absence and presence of 50 μM αS fibrils (stock solution 100 μM αS fibrils in PBS buffer).

[5] = Viscosity measurements (glycerol mixtures); type: physicochemical
Protocol: As a representative example, the viscosity of 7k (25 μM, 10 mM stock in DMSO) in glycerol/methanol mixtures were measured, varying the glycerol percentage 0-99%.
Viscosity measurements. As a representative example, we have measured the viscosity of 5k (25 μM, 10 mM stock in DMSO) in glycerol/ethylene glycol (G/EG) mixtures, varying the glycerol percentage 0-90%. Then, the emission spectra were recorded using a PTI QuantaMaster™ 40 fluorescence spectrometer by excitation with 385 nm wavelength.

[6] = Fluorescent quantum yield (QY) measurements; type: physicochemical; settings: for Fluorescence QY: ACN/PBS buffer (1:1 v/v); for Fluorescence quantum yield / QY: in ACN
Procedure, shortened: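 Fluorescence quantum yield was measured for each dye by first recording the incident excitation light spectrum with 1 mL of solvent. JASCO Quantum Yield Software then computed QY as the dye's fluorescence intensity divided by the drop in incident light intensity between dye-absent and dye-present samples. A full incident excitation spectrum with this setup needs an excitation wavelength of at least 360 nm.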

[7] = Absorbance measurements (UV-Vis); settings: for λabs: ACN/PBS; for Absorbance Wavelength: ACN:PBS buffer (50:50 v/v); for λabs, maximum absorption wavelength: absence of αS PFFs (−), dye 10 μM
αS fibrils [8] = target: T2, αS fibrils; assay: Fluorescent QY measurements with αS fibrils; type: physicochemical; settings: for Relative Brightness: ratio of ε•QY in the presence and absence of PFFs; for increase in QY with αS fibrils: presence versus absence of αS fibrils; for increase in brightness in the presence of PFFs: αS PFFs
Protocol: For each QY measurement, the incident excitation light spectrum was collected with 100 μL of probes (100 μM) in PBS buffer. After measuring the incident light intensity, probes (7j-7m) were added to the αS fibrils (100 μM) from a concentrated stock solution (10 mM in DMSO) to a final concentration of 100 μM and the new spectrum (fluorescence intensity and new incident light intensity) was collected. Using the JASCO Quantum Yield Software, the dye QY was calculated by dividing the dye fluorescence intensity by the difference in incident light intensity in the presence and absence of fibrils.
For each QY measurement, the incident excitation light spectrum was collected with […] of probes (100 μM) in PBS buffer. After measuring the incident light intensity, probes (5j and 5k) were added to the αS fibrils (100 μM) from a concentrated stock solution (10 mM in DMSO) to a final concentration of 100 μM and the new spectrum (fluorescence intensity and new incident light intensity) was collected. Using the JASCO Quantum Yield Software, the dye QY was calculated by dividing the dye fluorescence intensity by the difference in incident light intensity in the presence and absence of fibrils.

[9] = 25 μM in ACN/PBS buffer (1:1 v/v), pH 7.4
[10] = presence of αS PFFs, 100 μM dye and PFFs
[11] = presence of αS PFFs (+), 100 μM dye and PFFs
[12] = λex/λem = 435/575 nm for 5j and 463/580 nm for 5k

Row | Compound | fluorescence turn on with αS relative to tau [1] | fluorescence turn on with αS relative to Aβ1-42 [2] | emission span across solvents (solvatochromism) [3] | fluorescence turn on with αS monomer (αS monomer) | λabs (αS fibrils [4]; absence of αS PFFs) | ε (αS fibrils [4]; absence of αS PFFs) | λabs (αS fibrils [4]; presence of αS PFFs, PFF 50 μM) | ε (αS fibrils [4]; presence of αS PFFs) | Fluorescence QY [6] | Fluorescence quantum yield [6] | QY [6] | Absorbance λmax ([7]; 25 μM in ACN) | Absorbance λmax [7, 9] | Fluorescence QY (αS fibrils [8]; absence of αS PFFs, 100 μM dye) | Fluorescence QY (αS fibrils [8]; [10]) | Relative Brightness (αS fibrils [8]) | solvatochromism / environmental sensitivity [3] | λabs, maximum absorption wavelength (αS fibrils [4]) | E, molar absorptivity (ε) (αS fibrils [4]) | increase in molar absorptivity with αS fibrils (αS fibrils [4]) | further results
1 | Cc1c(C)n2c(/C=C/c3ccc(N4CCOCC4)cc3)c(C)c(=O)n2c1=O [Compound 7k, (E)-2,3,6-trimethyl-5-(4-morpholinostyryl)-1H,7H-pyrazolo[1,2-a]pyrazole-1,7-dione] | 2 fold | 13 fold | 490-590 nm | no significant fluorescence turn on signal | 370 nm | 17205 M⁻¹ cm⁻¹ | 356 nm | 49869 M⁻¹ cm⁻¹ | 1.0% | 6.9% | about 7% | 378 nm | 386 nm | 0.21% | 29.2% | 403 | – | – | – | – | increase in fluorescence intensity with % glycerol ([5]; glycerol/MeOH mixtures): > 6 fold; red-shift with % glycerol ([5]; glycerol/MeOH mixtures): 12 nm
2 | Cc1c(C)n2c(/C=C/c3ccc(N(C)C)cc3)c(C)c(=O)n2c1=O [Compound 7l, (E)-3-(4-(dimethylamino)styryl)-2,5,6-trimethyl-1H,7H-pyrazolo[1,2-a]pyrazole-1,7-dione] | 2 fold | 5 fold | 490-590 nm | occurs only with αS fibrils, not monomers | 393 nm | 20071 M⁻¹ cm⁻¹ | 386 nm | 43864 M⁻¹ cm⁻¹ | 0.5% | 7.5% | about 7% | 402 nm | 418 nm | 0.15% | 32.7% | 476 | high level of solvatochromism | 386 nm | 43864 M⁻¹ cm⁻¹ | 2.2 fold | fluorescence turn-on with αS relative to tau [1]: 2.8 fold; fluorescence turn-on with αS relative to Aβ1-42 [2]: 5.2 fold; λmax (λem) (αS monomer; 2 M TMAO): 567 nm; λmax (λem) (αS monomer; 4 M TMAO): 566 nm; λmax (λem) (αS monomer; 6 M TMAO): 560 nm; increase in fluorescence intensity with increased % glycerol ([5]; ethylene glycol/glycerol mixtures): 3.7 fold; Fluorescence quantum yield ([6]; Table S12): 7.5%; QY ([6]; listed as 5k): 7.5%; λabs [7]: 418 nm; Absorbance Wavelength ([7]; Table S14): 418 nm; λabs, maximum absorption wavelength [7]: 393 nm; Fluorescence QY (αS fibrils [8]; [11]): 32.7%; increase in QY with αS fibrils (αS fibrils [8]): 218 fold; Relative Brightness (αS fibrils [8]; [12]): 476; increase in brightness in the presence of PFFs (αS fibrils [8]): 476 fold
3 | Cc1c(C)n2c(/C=C/c3ccc(N)cc3)c(C)c(=O)n2c1=O [Compound 7j, (E)-3-(4-aminostyryl)-2,5,6-trimethyl-1H,7H-pyrazolo[1,2-a]pyrazole-1,7-dione] | – | – | – | – | 372 nm | 15385 M⁻¹ cm⁻¹ | 359 nm | 45956 M⁻¹ cm⁻¹ | 0.7% | 1.5% | 2% | 378 nm | 385 nm | 0.17% | 20.7% | 364 | showed sensitivity to solvent polarity | 359 nm | 45956 M⁻¹ cm⁻¹ | 3 fold | Fluorescence quantum yield ([6]; Table S12): 1.5%; Absorbance Wavelength ([7]; Table S14): 385 nm; λabs, maximum absorption wavelength [7]: 372 nm; Fluorescence QY (αS fibrils [8]; [11]): 20.7%; increase in QY with αS fibrils (αS fibrils [8]): 122 fold; Relative Brightness (αS fibrils [8]; [12]): 364; increase in brightness in the presence of PFFs (αS fibrils [8]): 364 fold
4 | Cc1c(C)n2c(/C=C/C=C/c3ccc(N(C)C)cc3)c(C)c(=O)n2c1=O [Compound 7m, 3-((1E,3E)-4-(4-(dimethylamino)phenyl)buta-1,3-dien-1-yl)-2,5,6-trimethyl-1H,7H-pyrazolo[1,2-a]pyrazole-1,7-dione] | 9 fold | 15 fold | – | – | 416 nm | 19024 M⁻¹ cm⁻¹ | 412 nm | 52234 M⁻¹ cm⁻¹ | 0.6% | 13.5% | 14% | 410 nm | 436 nm | 0.20% | 27.9% | 383 | high levels of solvatochromism | – | – | – | λabs [7]: 436 nm; Absorbance Wavelength ([7]; Table 11): 418 nm
